# Experimental data published in patent US9115133B2, “Substituted fused tricyclic compounds, compositions and medicinal applications thereof” (Advinus Therapeutics Limited, priority 2011, dated 2015).
# How the values were obtained:
# Type in all cases: biochemical
# Details in all cases: 200 μg/ml Poly Glu-Tyr (4:1), ATP 1 uM, 90 min room temperature, luminescence
# [1] = target: T1, Recombinant JAK3 (Amino acids 781-1124) (Homo sapiens, UniProt P52333); test: Kinase-Glo Luminescent Kinase Assay, recombinant JAK3
# T1 construct: JAK3 (Amino acids 781-1124; NM_000215.3); made in house; host or cells: baculovirus expression system (Bac-to-Bac)
# In short: (§1)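 Baculovirus-expressed kinase domains were pre-incubated 5 min with compound (1% DMSO), then reacted 90 min at room temperature with 200 μg/ml poly Glu-Tyr (4:1) and 1 uM ATP in 50 mM HEPES pH 7.4, 5 mM MgCl2. Remaining ATP was read by Kinase-Glo luminescence. IC50 came from four-parameter logistic fits.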
# [2] = target: T2, Recombinant JAK1 (Amino acids 850-1154) (Homo sapiens, UniProt P23458); test: Kinase-Glo Luminescent Kinase Assay, recombinant JAK1
# T2 construct: Recombinant JAK1 (Amino acids 850-1154; NM_002227.2); made in house; host or cells: baculovirus expression system (Bac-to-Bac)
# In short: as §1
# [3] = target: T3, Recombinant JAK2 (Amino acids 808-1132) (Homo sapiens, UniProt O60674); test: Kinase-Glo Luminescent Kinase Assay, recombinant JAK2
# T3 construct: JAK2 (Amino acids 808-1132; NM_004972.3); made in house; host or cells: baculovirus expression system (Bac-to-Bac)
# In short: as §1
# T2 sequence (P23458 850-1154): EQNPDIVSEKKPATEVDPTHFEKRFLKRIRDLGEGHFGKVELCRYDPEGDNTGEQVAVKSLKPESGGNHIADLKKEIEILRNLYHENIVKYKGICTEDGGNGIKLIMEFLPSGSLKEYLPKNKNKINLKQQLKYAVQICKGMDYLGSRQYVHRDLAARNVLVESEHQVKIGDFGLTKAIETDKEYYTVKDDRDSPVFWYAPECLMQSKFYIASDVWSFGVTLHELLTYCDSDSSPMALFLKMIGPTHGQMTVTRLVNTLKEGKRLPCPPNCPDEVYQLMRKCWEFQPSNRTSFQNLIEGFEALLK
# T1 sequence (P52333 781-1124): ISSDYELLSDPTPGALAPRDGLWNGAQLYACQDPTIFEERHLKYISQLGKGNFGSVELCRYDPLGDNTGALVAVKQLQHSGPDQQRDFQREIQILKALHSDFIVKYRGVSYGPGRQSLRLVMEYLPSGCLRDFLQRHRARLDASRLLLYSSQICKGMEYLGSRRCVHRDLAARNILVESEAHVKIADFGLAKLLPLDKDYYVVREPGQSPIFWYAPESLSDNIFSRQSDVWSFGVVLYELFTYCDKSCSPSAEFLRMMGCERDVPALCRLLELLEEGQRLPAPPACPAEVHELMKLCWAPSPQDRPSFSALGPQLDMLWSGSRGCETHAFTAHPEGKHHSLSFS
# T3 sequence (O60674 808-1132): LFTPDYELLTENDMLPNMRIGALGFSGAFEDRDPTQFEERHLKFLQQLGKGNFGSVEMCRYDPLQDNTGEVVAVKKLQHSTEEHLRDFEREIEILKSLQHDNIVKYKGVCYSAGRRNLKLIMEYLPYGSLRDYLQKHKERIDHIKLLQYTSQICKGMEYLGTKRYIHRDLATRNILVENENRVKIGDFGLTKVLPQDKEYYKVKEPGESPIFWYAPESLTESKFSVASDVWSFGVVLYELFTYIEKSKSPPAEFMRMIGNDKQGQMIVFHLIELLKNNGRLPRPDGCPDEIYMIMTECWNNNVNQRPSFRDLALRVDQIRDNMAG
Compound,IC50 [1],IC50 [2],IC50 [3]
"CC(C)/C(=N\C#N)N1CCC[C@H](c2ccnc3cnc4[nH]ccc4c23)C1 [Ex. 43A, (R)(E)-[2-methyl-1-[3-(3H-pyrrolo[3,2-f][1,7]naphthyridin-9-yl)-1-piperidyl]propylidene]cyanamide]",> 20 nM,> 20 nM,> 20 nM
"CC(C)/C(=N\C#N)N1CCC[C@@H](c2ccnc3cnc4[nH]ccc4c23)C1 [Ex. 43B, (S)(E)-[2-methyl-1-[3-(3H-pyrrolo[3,2-f][1,7]naphthyridin-9-yl)-1-piperidyl]propylidene]cyanamide]",1 to 20 nM,1 to 20 nM,1 to 20 nM
"N#C/N=C(\CC(F)(F)F)N1CCCC(c2ccnc3cnc4[nH]ccc4c23)C1 (stereo not drawn) [Ex. 44, (E)-[3,3,3-trifluoro-1-[3-(3H-pyrrolo[3,2-f][1,7]naphthyridin-9-yl)-1-piperidyl]propylidene]cyanamide]",> 20 nM,1 to 20 nM,1 to 20 nM
"N#C/N=C(\CC(F)(F)F)N1CCC(c2ccnc3cnc4[nH]ccc4c23)C1 (stereo not drawn) [Ex. 45, (E)-[3,3,3-trifluoro-1-[3-(3H-pyrrolo[3,2-f][1,7]naphthyridin-9-yl)pyrrolidin-1-yl]propylidene]cyanamide]",> 20 nM,1 to 20 nM,1 to 20 nM
"CN(C)C(=O)N1CCCC(c2ccnc3cnc4[nH]ccc4c23)C1 (stereo not drawn) [Ex. 47, N,N-dimethyl-3-(3H-pyrrolo[3,2-f][1,7]naphthyridin-9-yl)piperidine-1-carboxamide]",1 to 20 nM,1 to 20 nM,1 to 20 nM
"CCNC(=O)N1CCCC(c2ccnc3cnc4[nH]ccc4c23)C1 (stereo not drawn) [Ex. 48, N-ethyl-3-(3H-pyrrolo[3,2-f][1,7]naphthyridin-9-yl)piperidine-1-carboxamide]",> 20 nM,> 20 nM,> 20 nM
"CC(C)CNC(=O)N1CCCC(c2ccnc3cnc4[nH]ccc4c23)C1 (stereo not drawn) [Ex. 49, N-isobutyl-3-(3H-pyrrolo[3,2-f][1,7]naphthyridin-9-yl)piperidine-1-carboxamide]",> 20 nM,> 20 nM,> 20 nM
"CNC(=O)N1CCCC(c2ccnc3cnc4[nH]ccc4c23)C1 (stereo not drawn) [Ex. 50, N-methyl-3-(3H-pyrrolo[3,2-f][1,7]naphthyridin-9-yl)piperidine-1-carboxamide]",> 20 nM,> 20 nM,> 20 nM
"c1cc(N2CCCC(OCC3CC3)C2)c2c(cnc3[nH]ccc32)n1 (stereo not drawn) [Ex. 56, 9-[3-(cyclopropylmethoxy)-1-piperidyl]-3H pyrrolo[3,2f][1,7] naphthyridine]",1 to 20 nM,1 to 20 nM,1 to 20 nM
"c1cc(N2CCC(OCC3CC3)CC2)c2c(cnc3[nH]ccc32)n1 [Ex. 60, 9-[4-(cyclopropylmethoxy)-1-piperidyl]-3H-pyrrolo[3,2-f][1,7]naphthyridine]",1 to 20 nM,> 20 nM,> 20 nM
"O=C(NC1CC1)[C@@H]1CCCN(c2ccnc3cnc4[nH]ccc4c23)C1 [Ex. 61B, (3R)-N-cyclopropyl-1-(3H-pyrrolo[3,2-f][1,7]naphthyridin-9-yl)piperidine-3-carboxamide]",> 20 nM,> 20 nM,> 20 nM
"CN(C(=O)CC(F)(F)F)C1CCCN(c2ccnc3cnc4[nH]ccc4c23)C1 (stereo not drawn) [Ex. 65, 3,3,3-trifluoro-N-methyl-N-[1-(3H-pyrrolo[3,2-f][1,7]naphthyridin-9-yl)-3-piperidyl]propanamide]",> 20 nM,> 20 nM,> 20 nM
"CC(C)NC(=O)C1CCCN(c2ccnc3cnc4[nH]ccc4c23)C1 (stereo not drawn) [Ex. 68, N-isopropyl-1-(3H-pyrrolo[3,2-f][1,7]naphthyridin-9-yl)piperidine-3-carboxamide]",> 20 nM,> 20 nM,> 20 nM
"CNC(=O)C1CCCN(c2ccnc3cnc4[nH]ccc4c23)C1 (stereo not drawn) [Ex. 71, N-methyl-1-(3H-pyrrolo[3,2-f][1,7]naphthyridin-9-yl)piperidine-3-carboxamide]",> 20 nM,> 20 nM,> 20 nM
"CCNC(=O)C1CCCN(c2ccnc3cnc4[nH]ccc4c23)C1 (stereo not drawn) [Ex. 72, N-ethyl-1-(3H-pyrrolo[3,2-f][1,7]naphthyridin-9-yl)piperidine-3-carboxamide]",> 20 nM,> 20 nM,> 20 nM
"O=C(NC1CCCN(c2ccnc3cnc4[nH]ccc4c23)C1)C1CC1 (stereo not drawn) [Ex. 74, N-[1-(3H-pyrrolo[3,2-f][1,7]naphthyridin-9-yl)-3-piperidyl] cyclopropanecarbox-amide]",> 20 nM,> 20 nM,> 20 nM
"O=S(=O)(NC1CCCN(c2ccnc3cnc4[nH]ccc4c23)C1)C(F)(F)F (stereo not drawn) [Ex. 81, 1,1,1-trifluoro-N-[1-(3H-pyrrolo[3,2-f][1,7]naphthyridin-9-yl)-3-piperidyl]methane sulfonamide]",1 to 20 nM,1 to 20 nM,1 to 20 nM
"O=C(NCC(F)(F)F)C1CCCN(c2ccnc3cnc4[nH]ccc4c23)C1 (stereo not drawn) [Ex. 83, 1-(3H-pyrrolo[3,2-f][1,7]naphthyridin-9-yl)-N-(2,2,2-trifluoroethyl)piperidine-3-carboxamide]",1 to 20 nM,1 to 20 nM,1 to 20 nM
"CC(C)NC(=O)C1CCN(c2ccnc3cnc4[nH]ccc4c23)C1 (stereo not drawn) [Ex. 84, N-isopropyl-1-(3H-pyrrolo[3,2-f][1,7]naphthyridin-9-yl)pyrrolidine-3-carboxamide]",> 20 nM,1 to 20 nM,> 20 nM
"O=C(NC1CC1)C1CCN(c2ccnc3cnc4[nH]ccc4c23)C1 (stereo not drawn) [Ex. 85, N-cyclopropyl-1-(3H-pyrrolo[3,2-f][1,7]naphthyridin-9-yl)pyrrolidine-3-carboxamide]",> 20 nM,> 20 nM,> 20 nM
"O=C(CC(F)(F)F)NC1CCCN(c2ccnc3cnc4[nH]ccc4c23)C1 (stereo not drawn) [Ex. 87, 3,3,3-trifluoro-N-[1-(3H-pyrrolo[3,2-f][1,7]naphthyridin-9-yl)-3-piperidyl] propanamide]",> 20 nM,> 20 nM,1 to 20 nM
"N#CCC(=O)N1CCN(c2ccnc3cnc4[nH]ccc4c23)CC1 [Ex. 102, 3-oxo-3-[4-(3H-pyrrolo[3,2-f][1,7]naphthyridin-9-yl)piperazin-1-yl]propanenitrile]",> 20 nM,> 20 nM,> 20 nM
"N#CCS(=O)(=O)N1CCN(c2ccnc3cnc4[nH]ccc4c23)CC1 [Ex. 105, 2-[4-(3H-pyrrolo[3,2-f][1,7]naphthyridin-9-yl)piperazin-1-yl]sulfonylacetonitrile]",> 20 nM,1 to 20 nM,> 20 nM
